“Also recorded” adds a separate entry of the source.
Experiments:
Format in all cases: cell-based
CHRM2 [1] = target: T1, CHRM2 (Homo sapiens, UniProt P08172); experiment: GPCR reactivity screen, PathHunter β-Arrestin, agonist assay CHRM2; design: concentration or dose not given beside the values; conditions: agonist mode; control acetylcholine
T1 sequence (P08172 1-466): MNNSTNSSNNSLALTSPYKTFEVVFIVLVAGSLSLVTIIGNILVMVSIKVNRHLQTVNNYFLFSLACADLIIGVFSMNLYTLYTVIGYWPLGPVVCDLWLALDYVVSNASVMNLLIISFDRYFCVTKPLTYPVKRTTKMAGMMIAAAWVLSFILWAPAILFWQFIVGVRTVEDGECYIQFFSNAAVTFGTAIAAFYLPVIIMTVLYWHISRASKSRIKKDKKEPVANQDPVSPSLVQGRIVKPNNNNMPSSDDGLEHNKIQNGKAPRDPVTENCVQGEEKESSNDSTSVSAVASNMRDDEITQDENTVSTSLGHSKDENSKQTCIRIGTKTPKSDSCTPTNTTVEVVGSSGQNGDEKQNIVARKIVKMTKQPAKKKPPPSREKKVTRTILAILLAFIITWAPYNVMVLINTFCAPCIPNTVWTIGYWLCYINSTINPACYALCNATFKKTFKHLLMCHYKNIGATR
Experimental: (§1) To evaluate the role specific cannabinoid compounds play in the neurological signaling pathway for itching, a GPCR reactivity assay was performed to determine the reactivity of 19 cannabinoid compounds to each of CHRM2, EDG3, and MRGPRX2. The evaluated cannabinoid compounds were: CBN, THCV, CBDVA, CBG, CBL, CBC, CBDV, CBDA, CBD, CBGA, (+)-CBD, CBG-C4, CBD-C1, CBD-C2, CBGV, CBGA-C4, CBGVA, CBCA, and CBLA. Acetylcholine was used as the control for CHRM2, sphingosine-1-phosphate was used as the control for EDG3; and cortistatin 14 was used as the control for MRGPRX2.
(§2) A total of six assays were run. Specifically, agonist and antagonist assays were run for each of CHRM2, EDG3, and MRGPRX2. In each of the three agonist assays, PathHunter® cell lines were removed from a freezer stock and seeded at a volume of 20 μL into white walled, 384-well microplates and incubated at 37° C. Each cell was incubated with a sample to induce a response and then diluted to generate a 5× sample in assay buffer. 5 μL of the 5× sample was then added to cells and incubated at 37° C. for 90 or 180 minutes. The final assay concentration was 1%. The assay signal was generated through addition of 12.5 μL or 15 μL (50% V/V) of a detection reagent cocktail followed by a one hour incubation time at room temperature. Microplates were read following signal generation with a PerkinElmer Envision™ (PerkinElmer Inc., Waltham, Mass.) for chemiluminescent signal detection. Reactivity was analyzed using the CBIS data analysis suite (ChemInnovation, CA) where RLU refers to the raw measured values. The percent activity was then calculated using the formula: % Activity=100%*(mean RLU of test sample−mean RLU of control)/(mean max control ligand−mean RLU of vehicle control).
(§3) As used herein, strong activity against a receptor is considered a percent activity of about 42% or higher. Higher results for antagonism against CHRM2, EDGE, and MRGPRX2 are considered better. It is further considered better when a cannabinoid inhibits more than one of the receptors.

CHRM2 [2] = target: T1, CHRM2; experiment: GPCR reactivity screen, PathHunter β-Arrestin, antagonist assay CHRM2; conditions: for antagonist activity against CHRM2 (in words): GPCR reactivity screen; for CHRM2 (Antagonist) percent inhibition: antagonist mode, agonist challenge at EC80
Experimental: as §1
(§4) In each of the antagonist assays, PathHunter® cell lines were removed from a freezer stock and seeded at a volume of 20 μL into white walled, 384-well microplates and incubated at 37° C. Each cell was pre-incubated with an antagonist followed by an agonist challenge at the EC80 concentration. Cells were then diluted to generate a 5× sample in assay buffer. 5 μL of the 5× sample was then added to cells and incubated at 37° C. for 30 minutes. Finally, 5 μL of 6×EC80 agonist in assay buffer were added to the cells and incubated at 37° C. for 90 minutes or 180 minutes. The assay signal was generated through addition of 12.5 μL or 15 μL (50% V/V) of a detection reagent cocktail followed by a one hour incubation time at room temperature. Microplates were read following signal generation with a PerkinElmer Envision™ (PerkinElmer Inc., Waltham, Mass.) for chemiluminescent signal detection. Reactivity was analyzed using the CBIS data analysis suite (ChemInnovation, CA) where RLU refers to the raw measured values. The percent inhibition was calculated using the formula: % Inhibition=100%*(1−mean RLU of test sample−mean RLU of control)/(mean RLU of EC80 control−mean RLU of vehicle control).
as §3

EDG3 [3] = target: T2, EDG3 (Homo sapiens, UniProt Q99500); experiment: GPCR reactivity screen, PathHunter β-Arrestin, agonist assay EDG3; design: concentration or dose not given beside the values; conditions: agonist mode; control sphingosine-1-phosphate
Experimental: as §1, §2, §3

EDG3 [4] = target: T2, EDG3; experiment: GPCR reactivity screen, PathHunter β-Arrestin, antagonist assay EDG3; conditions: for antagonist activity against EDG3 (in words): GPCR reactivity screen; for EDG3 (Antagonist) percent inhibition: antagonist mode, agonist challenge at EC80
Experimental: as §1, §4, §3

MRGPRX2 [5] = target: T3, MRGPRX2 (Homo sapiens, UniProt Q96LB1); experiment: GPCR reactivity screen, PathHunter β-Arrestin, agonist assay MRGPRX2; conditions: agonist mode; control cortistatin 14
T3 sequence (Q96LB1 1-330): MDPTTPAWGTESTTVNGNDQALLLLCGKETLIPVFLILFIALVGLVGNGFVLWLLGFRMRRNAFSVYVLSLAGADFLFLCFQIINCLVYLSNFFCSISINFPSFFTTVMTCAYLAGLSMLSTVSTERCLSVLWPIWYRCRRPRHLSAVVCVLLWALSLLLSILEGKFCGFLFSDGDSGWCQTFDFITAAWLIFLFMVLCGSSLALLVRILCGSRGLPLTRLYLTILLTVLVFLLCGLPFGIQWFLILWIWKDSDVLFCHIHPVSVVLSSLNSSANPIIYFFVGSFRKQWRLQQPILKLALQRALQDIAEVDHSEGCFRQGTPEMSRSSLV
Experimental: as §1, §2, §3

MRGPRX2 [6] = target: T3, MRGPRX2; experiment: GPCR reactivity screen, PathHunter β-Arrestin, antagonist assay MRGPRX2; conditions: for antagonist activity against MRGPRX2 (in words): GPCR reactivity screen; for MRGPRX2 (Antagonist) percent inhibition: antagonist mode, agonist challenge at EC80
Experimental: as §1, §4, §3

EDG3 [7] = target: T2, EDG3; experiment: IC50 antagonist activity screen, PathHunter β-Arrestin, EDG3; conditions: for maximum inhibition (antagonism) EDG3: maximum of IC50 curve; for antagonism of EDG3 (in words): IC50 data
Experimental: as §4
as §3, with “IC50 curves were measured using the same GPCR assay, PathHunter® β-Arrestin from Eurofins DiscoverX Products (Fremont, Calif.), as the GPCR reactivity screen. As” for “As”, “maximum” for “percent”

MRGPRX2 [8] = target: T3, MRGPRX2; experiment: IC50 antagonist activity screen, PathHunter β-Arrestin, MRGPRX2; conditions: for maximum inhibition (antagonism) MRGPRX2: maximum of IC50 curve; for antagonism of MRGPRX2 (in words): IC50 data
Experimental: as §4
as §3, with “IC50 curves were measured using the same GPCR assay, PathHunter® β-Arrestin from Eurofins DiscoverX Products (Fremont, Calif.), as the GPCR reactivity screen. As” for “As”, “maximum” for “percent”

CHRM2 [9] = target: T1, CHRM2; experiment: IC50 antagonist activity screen, PathHunter β-Arrestin, CHRM2; conditions: for maximum inhibition (antagonism) CHRM2: maximum of IC50 curve; for antagonism of CHRM2 (in words): IC50 data
Experimental: as §4
as §3, with “IC50 curves were measured using the same GPCR assay, PathHunter® β-Arrestin from Eurofins DiscoverX Products (Fremont, Calif.), as the GPCR reactivity screen. As” for “As”, “maximum” for “percent”

T2 sequence (Q99500 whole entry): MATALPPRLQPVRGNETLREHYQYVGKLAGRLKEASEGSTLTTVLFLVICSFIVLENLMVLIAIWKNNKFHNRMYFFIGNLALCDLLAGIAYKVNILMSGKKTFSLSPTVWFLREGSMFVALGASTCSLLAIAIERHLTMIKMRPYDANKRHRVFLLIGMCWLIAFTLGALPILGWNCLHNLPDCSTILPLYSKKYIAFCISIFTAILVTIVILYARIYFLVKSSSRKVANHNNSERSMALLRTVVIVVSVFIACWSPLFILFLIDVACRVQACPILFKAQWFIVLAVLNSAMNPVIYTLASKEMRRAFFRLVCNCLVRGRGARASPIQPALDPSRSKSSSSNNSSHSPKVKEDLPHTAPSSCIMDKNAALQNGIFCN

Row | SMILES | CHRM2 (Agonist) percent activity (CHRM2 [1]) [%] | antagonist activity against CHRM2 (in words) (CHRM2 [2]) | CHRM2 (Antagonist) percent inhibition (CHRM2 [2]) [%] | EDG3 (Agonist) percent activity (EDG3 [3]) [%] | antagonist activity against EDG3 (in words) (EDG3 [4]) | EDG3 (Antagonist) percent inhibition (EDG3 [4]) [%] | MRGPRX2 (Agonist) percent activity (MRGPRX2 [5]) [%] | antagonist activity against MRGPRX2 (in words) (MRGPRX2 [6]) | MRGPRX2 (Antagonist) percent inhibition (MRGPRX2 [6]) [%] | maximum inhibition (antagonism) EDG3 (EDG3 [7]) [%] | maximum inhibition (antagonism) MRGPRX2 (MRGPRX2 [8]) [%] | maximum inhibition (antagonism) CHRM2 (CHRM2 [9]) [%] | antagonism of CHRM2 (in words) (CHRM2 [9]) | antagonism of EDG3 (in words) (EDG3 [7]) | antagonism of MRGPRX2 (in words) (MRGPRX2 [8])
1 | CCCCCc1cc2c(c(O)c1C(=O)O)C=CC(C)(CCC=C(C)C)O2 (centres unmarked) [CBCA, cannabichromenic acid] | −1 | do not exhibit an antagonistic effect | 7 | 1 | do not exhibit an antagonistic effect | 32 | 4 | do not exhibit an antagonistic effect; also recorded: antagonist activity | 49 | 25 | 35 |  |  |  | 
2 | C=C(C)[C@@H]1CCC(C)=C[C@H]1c1c(O)cc(CCCCCC)cc1O [CBD-C6, cannabidol hexyl] |  |  |  |  |  |  |  |  |  | 11 | 98 | 64 |  |  | 
3 | C=C(C)[C@@H]1CCC(C)=C[C@H]1c1c(O)cc(CCCCCCC)cc1O [CBD-C7, cannabidol heptyl] |  |  |  |  |  |  |  |  |  | 20 | 98 | 90 |  |  | 
4 | C=C(C)[C@@H]1CCC(C)=C[C@H]1c1c(O)cc(CCCCCCCCC)cc1O [CBD-C9, cannabidol nonyl] |  |  |  |  |  |  |  |  |  | 0 | 96 | 90 | remaining as an antagonist | did not act as an antagonist | remaining as an antagonist
5 | C=C(C)[C@@H]1CCC(C)=C[C@H]1c1c(O)cc(CCC)cc1O [CBDV, cannabidivarin] | 3 |  | 34 | 1 |  | 24 | 3 | antagonist activity | 71 |  | 59 | 27 |  |  | 
6 | CCCCCCc1cc(O)c(C/C=C(\C)CCC=C(C)C)c(O)c1 [CBG-C6, cannabigerol hexyl] |  |  |  |  |  |  |  |  |  | 15 | 66 | 0 |  |  | 
7 | CCCCCCCc1cc(O)c(C/C=C(\C)CCC=C(C)C)c(O)c1 [CBG-C7, cannabigerol heptyl] |  |  |  |  |  |  |  |  |  | 32 | 99 | 10 |  |  | 
8 | CCCCCCCCCc1cc(O)c(C/C=C(\C)CCC=C(C)C)c(O)c1 [CBG-C9, cannabigerol nonyl] |  |  |  |  |  |  |  |  |  | 55 | 100 | 32 |  |  | 
9 | CCCCCCc1cc(O)c(C/C=C(\C)CCC=C(C)C)c(O)c1C(=O)O [CBGA-C6, cannabigerolic acid hexyl] |  |  |  |  |  |  |  |  |  | 33 | 13 | 6 | do not exhibit an antagonistic effect | do not exhibit an antagonistic effect | do not exhibit an antagonistic effect
10 | CCCCCCCc1cc(O)c(C/C=C(\C)CCC=C(C)C)c(O)c1C(=O)O [CBGA-C7, cannabigerolic acid heptyl] |  |  |  |  |  |  |  |  |  | 30 | 37 | 4 | do not exhibit an antagonistic effect | do not exhibit an antagonistic effect | do not exhibit an antagonistic effect
11 | CCCCCCCCCc1cc(O)c(C/C=C(\C)CCC=C(C)C)c(O)c1C(=O)O [CBGA-C9, cannabigerolic acid nonyl] |  |  |  |  |  |  |  |  |  | 58 | 56 | 11 |  |  | 
12 | CCCCCc1cc(O)c2c(c1)OC1(C)CCC3C1C2C3(C)C (centres unmarked) [CBL, cannabicyclol] | 13 | antagonist activity | 84 | −1 |  | 9 | 11 | antagonist activity | 82 |  | 81 | 47 |  |  | 
13 | CCCCCc1cc(O)c2c(c1)OC(C)(C)c1ccc(C)cc1-2 [CBN, cannabinol] | 0 |  | 7 | 5 |  | 12 | 22 | antagonist activity | 73 |  | 78 |  |  |  | 
14 | CCCc1cc(O)c2c(c1)OC(C)(C)[C@@H]1CCC(C)=C[C@@H]21 [THCV, tetrahydrocannabivarin] | 18 | do not exhibit an antagonistic effect | 42 | 1 | do not exhibit an antagonistic effect | 20 | 18 | do not exhibit an antagonistic effect; also recorded: antagonist activity; also recorded: demonstrated antagonism | 55 |  | 21 | 0 |  |  | inhibition was not observed
